In patent publication US10285938B2 (ISSAR Pharmaceutical, priority 2015, dated 2019):
Read-outs that look alike come from different tables or passages of the source. No end group written: not given here.

Assays:
[1] = subacute toxicity study in rabbits; type: in vivo
[2] = system: burn wound healing; parameters: species or system human; details: in vivo
From the text: None of the XYLENTRA® treated volunteers developed any adverse reaction.

[3] = human, in vivo
From the text: There was an absence of any symptoms or signs of toxicity at the evaluation site and considered a measure of primary efficacy/tolerability was established in this study. […] Treatment Groups (2% and 4%) were similar in efficacy/tolerability and safety parameters studied.

[4] = system: Pseudomonas aeroginosa MTCC 741; type: cell-based
From the text: Whereas, 100% killing of Pseudomonas aeroginosa was observed on exposure to the test compound for 1 hr at pH 8.4 and an exposure of 4 hrs was required for 100% killing at pH 7.2.

[5] = system: partial thickness burns
From the text: Patients of either gender with partial thickness burns referred to a tertiary referral center Number of Subjects Enrolled: 160
Multi-center, double-blind, randomized parallel design study in 200 patients of partial thickness burns • 2. […] Participants satisfying the inclusion criteria were hospitalized for the study duration and were randomized in a 1:1 ratio to receive either SSD 1% or XYLENTRA®. Randomization was done specific for each center. Allocation concealment was maintained. The drugs were topically administered once daily for 4 weeks or until complete wound healing, whichever was earlier. The patients were discharged only after complete healing of wound and recovery from other secondary effects of burns. A follow up was done on the 3rd month to record the frequency of scars^10, keloids or contracture formation. • b. […] Either sex • 2. Age 18-60 years • 3. Those diagnosed with partial thickness thermal burns as per clinically • 4. Total surface area of the burn 10-20% as per Wallace rule of nine • 5. Willing to give written informed consent. • 6. Females of child-bearing potential with a negative urine pregnancy test on Day 1 • 7. […]
Safety was measured by pretreatment and post treatment biochemical investigations (Hematological variables) and physical examination. Subjects were thoroughly monitored for adverse effects.

[6] = system: Staphylococcus aureus MTCC 96; type: cell-based
[7] = subacute toxicity study in rats; type: in vivo

## FAKKFAKKFAKFAKKFAKFAFAF [XYLENTRA®]
[1]
  mortality: No mortality
[1]; application of the peptide
  abnormalities in physical, physiological, biochemical and histo-pathological parameters: No abnormalities
[2]
  systemic absorption (pharmacokinetic data): absence of systemic absorption
  volunteers who developed any adverse reaction: None
[3]
  mild redness and itching: 2/24
  safety of cream: safe
  systemic absorption (pharmacokinetic data by HPLC): no systemic absorption
[4]; MTCC 741, 1 h, pH 8.4
  killing of Pseudomonas aeroginosa: 100%
[4]; MTCC 741, 4 h, pH 7.2
  killing of Pseudomonas aeroginosa: 100%
[5]; Phase III
  serious adverse events and deaths: No serious adverse events and no deaths
[5]; mostly skin related disorders
  nature of treatment emergent adverse events: mild
[6]; MTCC 96, 1 h, 1 μM, pH 7.2
  killing of Staphylococcus aureus: 100%
[6]; MTCC 96, 1 h, 5 μM, pH 7.2
  killing of Staphylococcus aureus: 100%
[6]; MTCC 96, 4 h, pH 8.4
  killing of Staphylococcus aureus: 100%
[7]
  mortality: No mortality
[7]; application of the peptide
  abnormalities in physical, physiological, biochemical and histo-pathological parameters: No abnormalities
